According to patent US12600725B2 (Memorial Sloan-Kettering Cancer Center, priority 2013, dated 2026):
Values joined by “and” are separate entries in the source; they are usually repeats but may differ in a detail not shown here. Identical values can stand only once.

Experiments:
Grp94 = Grp94 (Canis lupus familiaris, UniProt P41148); details: read-out: Grp94; FP competition, 6 nM Cy3B-GM, 10 nM protein, 4° C. for 24 h
MDA-MB-468 cells = assay: Growth inhibition assay (Alamar blue); type: cell-based; details: Homo sapiens
Method: We evaluated the antiproliferative effects of inhibitors using the dye Alamar blue. This reagent offers a rapid objective measure of cell viability in cell culture, and it uses the indicator dye resazurin to measure the metabolic capacity of cells, an indicator of cell viability. Briefly, MDA-MB-468 cells were plated on Costar 96-well plates at 1500 cells/well. Cells were allowed to incubate for 24 h at 37° C. before drug treatment. Drugs were added in triplicate at the indicated concentrations, and the plate was incubated for 72 h. Alamar Blue (440 μM) was added, and the plate read 6 h later using Softmax Pro 6 software (Fluorescence intensity mode, excitation 530 nm, emission 580 nm, with 560 nm dichroic mirror). Results were analyzed using GraphPad Prism 5. The percentage cell growth inhibition was calculated by comparing fluorescence readings obtained from treated versus control cells, accounting for initial cell population (time zero).

Hsp90α = Hsp90α (Homo sapiens, UniProt P07900); assay: biochemical; details: FP competition, 6 nM Cy3B-GM, 10 nM protein, 4° C. for 24 h
Hsp90β = Hsp90β (Homo sapiens, UniProt P08238)
Trap-1 = molecular target: T1, Trap-1 (Homo sapiens, UniProt Q12931); assay: biochemical
T1 sequence (Q12931 60-704): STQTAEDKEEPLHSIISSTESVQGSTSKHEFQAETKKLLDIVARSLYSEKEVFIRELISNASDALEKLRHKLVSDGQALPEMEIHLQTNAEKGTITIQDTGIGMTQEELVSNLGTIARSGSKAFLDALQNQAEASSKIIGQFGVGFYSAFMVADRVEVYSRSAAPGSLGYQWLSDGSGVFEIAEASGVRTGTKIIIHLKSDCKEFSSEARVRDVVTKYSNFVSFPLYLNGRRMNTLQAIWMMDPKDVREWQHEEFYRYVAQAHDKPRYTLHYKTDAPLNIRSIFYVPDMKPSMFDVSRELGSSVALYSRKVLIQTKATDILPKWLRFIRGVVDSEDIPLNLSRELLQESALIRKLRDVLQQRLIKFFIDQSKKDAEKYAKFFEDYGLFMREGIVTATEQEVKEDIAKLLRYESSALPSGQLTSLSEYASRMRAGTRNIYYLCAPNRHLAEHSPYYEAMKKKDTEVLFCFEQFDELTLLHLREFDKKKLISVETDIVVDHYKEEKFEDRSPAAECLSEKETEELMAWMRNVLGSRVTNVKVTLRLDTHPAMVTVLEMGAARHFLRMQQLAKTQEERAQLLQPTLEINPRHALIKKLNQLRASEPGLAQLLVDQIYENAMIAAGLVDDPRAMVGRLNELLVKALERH

Chain of Hsp90β (P08238 whole entry): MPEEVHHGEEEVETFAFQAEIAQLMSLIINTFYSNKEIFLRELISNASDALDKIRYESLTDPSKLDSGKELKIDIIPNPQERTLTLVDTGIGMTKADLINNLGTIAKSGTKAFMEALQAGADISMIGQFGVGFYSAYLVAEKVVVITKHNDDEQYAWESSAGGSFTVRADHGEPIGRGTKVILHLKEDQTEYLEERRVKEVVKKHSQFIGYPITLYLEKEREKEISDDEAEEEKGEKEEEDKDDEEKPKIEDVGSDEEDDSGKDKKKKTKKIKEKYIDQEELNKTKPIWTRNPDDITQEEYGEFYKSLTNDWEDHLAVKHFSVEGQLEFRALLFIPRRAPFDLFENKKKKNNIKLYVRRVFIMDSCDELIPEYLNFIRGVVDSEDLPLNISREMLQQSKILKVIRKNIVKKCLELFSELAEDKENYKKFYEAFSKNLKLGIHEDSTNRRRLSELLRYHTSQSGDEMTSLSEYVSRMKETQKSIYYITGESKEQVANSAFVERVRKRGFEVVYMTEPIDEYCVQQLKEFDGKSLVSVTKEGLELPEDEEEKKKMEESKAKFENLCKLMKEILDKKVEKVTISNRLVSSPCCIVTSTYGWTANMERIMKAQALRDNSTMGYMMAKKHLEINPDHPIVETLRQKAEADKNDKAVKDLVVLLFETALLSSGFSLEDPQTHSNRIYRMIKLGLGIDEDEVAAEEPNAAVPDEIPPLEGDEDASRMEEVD
Chain of Grp94 (P41148 with tags, fused parts or gaps DELINS287-327GGGG): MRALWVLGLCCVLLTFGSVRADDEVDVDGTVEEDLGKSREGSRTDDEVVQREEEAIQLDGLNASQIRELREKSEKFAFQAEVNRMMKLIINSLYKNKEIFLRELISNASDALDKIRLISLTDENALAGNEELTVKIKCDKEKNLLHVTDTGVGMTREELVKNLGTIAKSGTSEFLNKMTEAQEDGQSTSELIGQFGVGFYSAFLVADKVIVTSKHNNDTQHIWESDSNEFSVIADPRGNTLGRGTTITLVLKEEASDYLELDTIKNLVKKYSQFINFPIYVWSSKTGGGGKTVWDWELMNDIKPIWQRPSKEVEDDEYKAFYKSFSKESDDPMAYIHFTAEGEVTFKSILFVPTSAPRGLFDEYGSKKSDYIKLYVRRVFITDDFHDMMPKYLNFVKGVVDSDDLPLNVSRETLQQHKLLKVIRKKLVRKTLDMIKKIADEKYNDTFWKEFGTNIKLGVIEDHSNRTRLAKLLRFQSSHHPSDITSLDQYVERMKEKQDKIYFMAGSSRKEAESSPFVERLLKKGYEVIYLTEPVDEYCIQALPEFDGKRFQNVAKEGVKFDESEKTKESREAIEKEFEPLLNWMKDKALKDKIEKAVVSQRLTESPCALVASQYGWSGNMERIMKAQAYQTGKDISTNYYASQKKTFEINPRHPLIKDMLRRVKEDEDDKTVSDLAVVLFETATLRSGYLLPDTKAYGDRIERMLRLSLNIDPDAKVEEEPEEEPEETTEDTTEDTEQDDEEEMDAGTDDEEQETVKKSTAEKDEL

CC(C)NCCCn1c(Sc2cc(Cl)cc(I)c2)nc2c(N)ncnc21 [HJP-V-149, 8-((3-chloro-5-iodophenyl)thio)-9-(3-(isopropylamino)propyl)-9H-purin-6-amine]
IC50 (Grp94): 240 nM
IC50 (MDA-MB-468 cells): 125 nM
IC50 (Hsp90α): 43200 nM

CC(C)CNCCCn1c(Sc2cc(Cl)cc(I)c2)nc2c(N)ncnc21 [HJP-VI-4, 8-((3-chloro-5-iodophenyl)thio)-9-(3-(isobutylamino)propyl)-9H-purin-6-amine]
IC50 (Grp94): 290 nM
IC50 (MDA-MB-468 cells): 212 nM
IC50 (Hsp90α): 41800 nM

CC(C)(C)CNCCCn1c(Sc2cc(Cl)cc(I)c2)nc2c(N)ncnc21 [HJP-VI-5, 8-((3-chloro-5-iodophenyl)thio)-9-(3-(neopentylamino)propyl)-9H-purin-6-amine]
IC50 (Grp94): 490 nM
IC50 (MDA-MB-468 cells): 562 nM
IC50 (Hsp90α): > 25000 nM

CC(C)(C)NCCCn1c(Sc2cc(Cl)cc(I)c2)nc2c(N)ncnc21 [HJP-VI-6, 9-(3-(tert-butylamino)propyl)-8-((3-chloro-5-iodophenyl)thio)-9H-purin-6-amine]
IC50 (Grp94): 540 nM
IC50 (MDA-MB-468 cells): 314 nM
IC50 (Hsp90α): 27800 nM

C=C(C)c1cc(Cl)cc(Sc2nc3c(N)ncnc3n2CCCNC(C)C)c1 [HJP-VI-12, 8-((3-chloro-5-(prop-1-en-2-yl)phenyl)thio)-9-(3-(isopropylamino)propyl)-9H-purin-6-amine]
IC50 (Grp94): 210 nM
IC50 (MDA-MB-468 cells): 63 nM
IC50 (Hsp90α): 20000 nM

C#Cc1cc(Cl)cc(Sc2nc3c(N)ncnc3n2CCCNC(C)C)c1 [HJP-VI-18, 8-((3-chloro-5-ethynylphenyl)thio)-9-(3-(isopropylamino)propyl)-9H-purin-6-amine]
IC50 (Grp94): 900 nM
IC50 (MDA-MB-468 cells): 122 nM
IC50 (Hsp90α): 152000 nM

CC(C)NCCCn1c(Sc2cc(Cl)cc(-c3ccc[nH]3)c2)nc2c(N)ncnc21 [HJP-VI-28, 8-((3-chloro-5-(1H-pyrrol-2-yl)phenyl)thio)-9-(3-(isopropylamino)propyl)-9H-purin-6-amine]
IC50 (Grp94): 220 nM
IC50 (MDA-MB-468 cells): 286 nM

CC(C)NCCCn1c(Sc2cc(Cl)cc(-c3ccn[nH]3)c2)nc2c(N)ncnc21 [HJP-VI-29, 8-((3-chloro-5-(1H-pyrazol-5-yl)phenyl)thio)-9-(3-(isopropylamino)propyl)-9H-purin-6-amine]
IC50 (Grp94): 1200 nM
IC50 (MDA-MB-468 cells): 516 nM
IC50 (Hsp90α): 25900 nM

C=Cc1cc(Cl)cc(Sc2nc3c(N)ncnc3n2CCCNC(C)C)c1 [HJP-VI-31, 8-((3-chloro-5-vinylphenyl)thio)-9-(3-(isopropylamino)propyl)-9H-purin-6-amine]
IC50 (Grp94): 630 nM
IC50 (MDA-MB-468 cells): 129 nM
IC50 (Hsp90α): 48900 nM

CC(C)NCCCn1c(Sc2ccc(Cl)cc2I)nc2c(N)ncnc21 [HJP-VI-36, 8-((4-chloro-2-iodophenyl)thio)-9-(3-(isopropylamino)propyl)-9H-purin-6-amine]
IC50 (Grp94): 210 nM
IC50 (MDA-MB-468 cells): 5850 nM
IC50 (Hsp90α): 3400 nM

CC(C)NCCCn1c(Sc2cc(Cl)cc(-c3ccoc3)c2)nc2c(N)ncnc21 [HJP-VI-39, 8-((3-chloro-5-(furan-3-yl)phenyl)thio)-9-(3-(isopropylamino)propyl)-9H-purin-6-amine]
IC50 (Grp94): 280 nM
IC50 (MDA-MB-468 cells): 166 nM
IC50 (Hsp90α): 21300 nM

CC(C)NCCCn1c(Sc2ccc(Cl)cc2-c2ccn[nH]2)nc2c(N)ncnc21 [HJP-VI-43, 8-((4-chloro-2-(1H-pyrazol-5-yl)phenyl)thio)-9-(3-(isopropylamino)propyl)-9H-purin-6-amine]
IC50 (Grp94): 450 nM
IC50 (MDA-MB-468 cells): 6580 nM
IC50 (Hsp90α): 1500 nM

CC(C)NCCCn1c(Sc2cc(Cl)cc(-c3cc[nH]c3)c2)nc2c(N)ncnc21 [HJP-VI-44, 8-((3-chloro-5-(1H-pyrrol-3-yl)phenyl)thio)-9-(3-(isopropylamino)propyl)-9H-purin-6-amine]
IC50 (Grp94): 830 nM
IC50 (MDA-MB-468 cells): 917 nM
IC50 (Hsp90α): 12300 nM

CC(C)NCCCn1c(Sc2cc(Cl)cc(-c3ncco3)c2)nc2c(N)ncnc21 [HJP-VI-49, 8-((3-chloro-5-(oxazol-2-yl)phenyl)thio)-9-(3-(isopropylamino)propyl)-9H-purin-6-amine]
IC50 (Grp94): 1300 nM
IC50 (MDA-MB-468 cells): 3120 nM
IC50 (Hsp90α): 29600 nM

C/C=C/c1cc(Cl)cc(Sc2nc3c(N)ncnc3n2CCCNC(C)C)c1 [HJP-VI-63, (E)-8-((3-chloro-5-(prop-1-en-1-yl)phenyl)thio)-9-(3-(isopropylamino)propyl)-9H-purin-6-amine]
IC50 (Grp94): 340 nM
IC50 (MDA-MB-468 cells): 226 nM
IC50 (Hsp90α): > 50000 nM

C=C(c1cc(Cl)cc(Sc2nc3c(N)ncnc3n2CCCNC(C)C)c1)C(F)(F)F [HJP-VI-70, 8-((3-chloro-5-(3,3,3-trifluoroprop-1-en-2-yl)phenyl)thio)-9-(3-(isopropylamino)propyl)-9H-purin-6-amine]
IC50 (Grp94): 153 nM
IC50 (MDA-MB-468 cells): 2160 nM
IC50 (Hsp90α): 13800 nM

C/C=C\c1cc(Cl)cc(Sc2nc3c(N)ncnc3n2CCCNC(C)C)c1 [HJP-VI-78, (Z)-8-((3-chloro-5-(prop-1-en-1-yl)phenyl)thio)-9-(3-(isopropylamino)propyl)-9H-purin-6-amine]
IC50 (Grp94): 214 nM
IC50 (MDA-MB-468 cells): 580 nM
IC50 (Hsp90α): 18600 nM

CC(C)(C)CNCCCn1c(Sc2cc(Cl)cc(Cl)c2)nc2c(N)nc(F)nc21 [HJP-VI-85, 8-((3,5-dichlorophenyl)thio)-2-fluoro-9-(3-(neopentylamino)propyl)-9H-purin-6-amine]
IC50 (Grp94): 186 nM
IC50 (MDA-MB-468 cells): 164 nM
IC50 (Hsp90α): > 50000 nM

CC(C)(C)NCCCn1c(Sc2cc(Cl)cc(Cl)c2)nc2c(N)nc(F)nc21 [HJP-VI-86, 9-(3-(tert-butylamino)propyl)-8-((3,5-dichlorophenyl)thio)-2-fluoro-9H-purin-6-amine]
IC50 (Grp94): 156 nM
IC50 (MDA-MB-468 cells): 53 nM
IC50 (Hsp90α): 20900 nM

Nc1ncn(CCC(F)(F)F)c2nc(Sc3cc(Cl)cc(Cl)c3)nc1-2 [PDP-I-13-N3, 8-((3,5-Dichlorophenyl)thio)-3-(3,3,3-trifluoropropyl)-3H-purin-6-amine]
IC50 (Grp94): 12800 ± 860 nM
IC50 (Hsp90β): > 100000 nM
IC50 (Trap-1): > 100000 nM
IC50 (Hsp90α): > 50000 nM

Nc1ncnc2c1nc(Sc1cc(Cl)cc(Cl)c1)n2CCC(F)(F)F [PDP-I-13-N9, 8-((3,5-Dichlorophenyl)thio)-9-(3,3,3-trifluoropropyl)-9H-purin-6-amine]
IC50 (Grp94): 570 ± 80 nM
IC50 (Hsp90β): > 100000 nM
IC50 (Trap-1): 10100 ± 1130 nM
IC50 (Hsp90α): > 50000 nM

C#CCCn1c(Sc2cc(Cl)cc(Cl)c2)nc2c(N)ncnc21 [PDP-I-14-N9, 9-(But-3-yn-1-yl)-8-((3,5-dichlorophenyl)thio)-9H-purin-6-amine]
IC50 (Grp94): 270 ± 20 nM
IC50 (Hsp90β): > 100000 nM
IC50 (Trap-1): > 100000 nM
IC50 (Hsp90α): > 100000 nM

C#CCCCn1c(Sc2cccc3ccccc23)nc2c(N)ncnc21 [PDP-I-16-N9]
IC50 (Grp94): 2160 ± 210 nM
IC50 (Hsp90β): > 100000 nM
IC50 (Trap-1): > 100000 nM
IC50 (Hsp90α): > 100000 nM

C#CCCCn1c(Sc2ccc(Cl)c(Cl)c2)nc2c(N)ncnc21 [PDP-I-25-N9]
IC50 (Grp94): 420 ± 40 nM
IC50 (Hsp90β): 10200 ± 1620 nM
IC50 (Trap-1): 2350 ± 90 nM
IC50 (Hsp90α): 4820 ± 1050 nM

C#CCCCn1c(Sc2ccc(Br)cc2CC)nc2c(N)ncnc21 [PDP-I-54-N9]
IC50 (Grp94): 660 ± 100 nM
IC50 (Hsp90β): > 50000 nM
IC50 (Trap-1): 4900 ± 270 nM
IC50 (Hsp90α): 13900 nM and 14000 nM

C#CCCCn1c(Sc2cc(Br)cc(Br)c2)nc2c(N)ncnc21 [PDP-I-59-N9]
IC50 (Grp94): 260 ± 70 nM
IC50 (Hsp90β): > 100000 nM
IC50 (Trap-1): > 100000 nM
IC50 (Hsp90α): > 100000 nM

C#CCCCn1c(Sc2ccc(Br)cn2)nc2c(N)ncnc21 [PDP-I-60-N9]
IC50 (Grp94): 530 ± 30 nM
IC50 (Hsp90β): 2820 nM
IC50 (Trap-1): 2180 ± 550 nM
IC50 (Hsp90α): 2180 ± 100 nM

C#CCCCn1c(Sc2cc(Cl)cc3c(Cl)ccnc23)nc2c(N)ncnc21 [PDP-I-79-N9]
IC50 (Grp94): 2780 ± 210 nM
IC50 (Hsp90β): > 100000 nM
IC50 (Trap-1): > 100000 nM
IC50 (Hsp90α): > 100000 nM

COc1cc(Cc2nc3c(N)ncnc3n2C(C)C)cc(OC)c1OC [PU-27]
IC50 (Grp94): 59300 ± 2690 nM
IC50 (Hsp90β): > 250000 nM
IC50 (Trap-1): > 300000 nM
IC50 (Hsp90α): > 500000 nM

CCC[C@H](C)n1c(Cc2cc(OC)c(OC)c(OC)c2)nc2c(N)ncnc21 [PU-34]
IC50 (Grp94): 91300 ± 2160 nM
IC50 (Hsp90β): > 250000 nM
IC50 (Trap-1): 227000 ± 6600 nM
IC50 (Hsp90α): > 500000 nM

C#CCCCn1cnc(N)c2nc(Sc3ccc(OC)cc3OC)nc1-2 [PU-H44]
IC50 (Grp94): 46800 nM
IC50 (Hsp90β): > 100000 nM
IC50 (Trap-1): > 100000 nM
IC50 (Hsp90α): > 100000 nM
